# Patent publication US20100028402A1, “NANOPARTICLE-BASED ANTICOAGULANT” (priority 2006, published 2010)
# Key:
# [1] = test system: murine bone marrow myeloid precursors; test: CFU-GM assay (myelosuppression); settings: FIG. 3
# Protocol: CFU-GM Assay. The granulocyte-macrophage colony-forming units (CFU-GM) assay employed murine bone marrow (BM). […] The BM cells were isolated from 8-12 week old mice and cultured in methylcellulose-based medium supplemented with cytokines (mSCF, mIL-3 and hIL-6) either untreated (baseline) or treated with nanoparticles (test). These cytokines promoted formation of granulocyte and macrophage (CFU-GM) colonies. After twelve days of incubation at 37° C. in the presence of 5% CO2 and 95% humidity number of colonies was quantified in baseline and test samples. A percent of CFU inhibition was then calculated for each test sample. The basic protocol for BM isolation and culture was adopted from technical manual # 28405 developed by StemCell Technologies Inc. The assay required 450 μL of a test-nanoparticles, MethoCult medium (StemCell Technologies Inc cat. # 03534), Fetal Bovine Serum prescreened for hematopoietic stem cells (StemCell Technologies Inc. cat. # 06200), Iscove's MDM with 2% FBS (StemCell Technologies Inc cat. # 07700), sterile distilled water, blunt-end 16 gauge needles (StemCell Technologies Inc cat. # 03534 2.6), cisplatin (positive control; Sigma cat #P4394), Sterile Ca^2+/Mg^2+-free DPBS (negative control; Sigma D8537). […]
# The CFU-GM assay required 450 μL of nanoparticles, e.g., three 150 μL samples, each of which is analyzed in duplicate. […]
# [2] = test system: red blood cells (pooled normal human whole blood); test: Hemolysis assay; format: cell-based
# Source text: Hemolysis Assay. This assay employs a protocol for quantitative colorimetric determination of hemoglobin in whole blood (total blood hemoglobin—TBH) and hemoglobin released into plasma (plasma free hemoglobin—PFH) when blood was exposed to nanoparticles. In brief, hemoglobin and its derivatives, except sulfhemoglobin, were oxidized to methemoglobin by ferricyanide in the presence of alkali. Cyanmethemoglobin (CMH) was formed from the methemoglobin by its reaction with cyanide (Drabkin's solution) and then detected by spectrophotometer set at 540 nm. The hemoglobin standard was used to build a standard curve covering the concentration range from 0.025 to 0.80 mg/mL and to prepare quality control samples at low (0.0625 mg/mL), mid (0.125 mg/mL) and high (0.625 mg/mL) concentrations to monitor assay performance. Required sample volume was 300 μL, e.g., 100 μL per test-replicate. The results expressed as percent of hemolysis were used to evaluate the acute in vitro hemolytic properties of nanoparticles.
# The following reagents were used in the assay: cyanmethemoglobin (CMH) reagent, (StanBio, cat. # 0321-380); hemoglobin standard (StanBio, cat. # 0325-006); Ca/Mg free DPBS (Sigma, catalogue no: D8537); pooled normal human whole blood anti-coagulated with Li-heparin; poly-L-Lysine hydrobromide (MW 150 000-300 000, Sigma, cat #P1399); polyethylene glycol (av. MW 8 000, Sigma cat # P1458); and distilled water. It is contemplated that equivalent reagents from other vendors can be used.
# The positive control was prepared by dissolving poly-L-Lysine powder to a final concentration of 1% (10 mg/mL) in sterile distilled water. […] Alternatively, 1% TritonX-100 in water was used as a positive control. […]
# Whole blood was collected in tubes containing Li-heparin as anti coagulant from at least three donors. […] The plate was then read by use of a plate reader at an absorbance of 540 nm to determine hemoglobin concentration. […] If calculated PFH concentration was below 1 mg/mL pooled whole blood was diluted with Ca^2+/Mg^2+ free DPBS to adjust total hemoglobin concentration to 10±2 mg/mL. […]
# [3] = test system: platelets (human platelet-rich plasma); test: Platelet aggregation assay, with and without collagen; format: cell-based
# Protocol: Platelet Aggregation Assay. […] The concentration of the nanoparticle was determined by considering the following parameters: i) the solubility of the nanoparticle in a biocompatible buffer; ii) maintaining the pH within a physiological range (pH 7±0.5); iii) availability of nanoparticle; and iv) stability of the nanoparticle. […] The assay required 150 μL of test material.
# Platelet-rich plasma (PRP) was obtained from fresh pooled human whole blood by spinning freshly drawn blood for 8 minutes at 200 g. PRP was then pooled from at least 3 different donors. It is to be noted that during phlebotomy, the first 2 mLs of blood was discarded. Further, PRP was prepared as soon as possible from the time of obtaining the blood sample and no longer than 1 hour after blood collection. PRP was kept at room temperature and was used within 4 hours of its isolation. Exposure of either the blood or PRP to cold temperatures (<20° C.) was avoided because such temperatures induce platelet aggregations.
# Three test tubes for the test sample, two tubes for the positive control and two tubes for the negative control were prepared. Twenty-five microliters of the test sample, positive control or negative control were added to the respective tubes. These samples provided data on the ability of the test nanoparticle to induced platelet aggregation. A second set of tubes were prepared for test-particles plus collagen. These set of tubes provided data on the ability of test-particles to interfere with platelet aggregation caused by collagen. For this set of studies, 25 μL of the positive control and 25 μL of the test nanoparticle was added to each “test-particles plus collagen” tube. Further, 50 μL of the negative control was added to each negative control tube and 25 μL of the positive control and 25 μL of RPMI was added to each positive control tube. In addition, one control tube with 100 μL of phosphate buffer saline (PBS) or RPMI and 25 μL of the nanoparticles was prepared to determine any potential particle interference with instrument counting procedure.
# PRP was added to the appropriate tubes, samples were briefly vortexed and then incubated with control or test sample for 15 minutes at a nominal temperature of 37° C. After the incubation period, 10 mL of Isoton II diluent was added into blood cell counter vials. Two vials were prepared for each sample replicate. Twenty microliters of PRP treated with positive control, negative control or test-nanoparticle was then added to the each vial. Vials were covered and gently inverted to mix the diluted samples. PRP was analyzed by a Z2 Particle Count and Size Analyzer (Beckman Coulter) to determine the number of active platelets. Percent Coefficient of Variation (% CV) was equal to the standard deviation divided by the mean multiplied by 100. Platelet count=(5×RC)/100=# platelets×10^9/L. Further, percent platelet aggregation (% aggregation)=Control Platelet Count−Sample Platelet Count/Control Platelet Count×100). The percent coefficient of variation for each control and test sample was within 25%. […] Percent platelet aggregation above 20% was considered to be positive (for example, test-particle induces platelet aggregation).
# Nanoparticle dimension = format: physicochemical
# [4] = test system: porcine proximal tubule epithelial cells (LLC-PK1); test: MTT and LDH cytotoxicity assays, kidney cells; format: cell-based; settings: 1.0 to 0.004 mg/mL
# Protocol: (§1) The cytotoxicity of AF1, AF3, C3, DF1 and NCL22 on porcine proximal tubule epithelial cells (LLC-PK1) was determined by a method that includes a 3-(4,5-Dimethyl-2-thiazolyl)-2,5-diphenyl-2H-tetrazolium bromide (MTT) reduction and lactate dehydrogenase (LDH) release assays. MTT that is a yellow water-soluble tetrazolium dye that is reduced by live cells to a water-insoluble purple formazan. The amount of formazan can be determined by solubilizing the formazan in DMSO and measuring it spectrophotometrically. Comparisons between the spectra of treated and untreated cells can give a relative estimation of cytotoxicity. (See, Alley et al. Cancer Res. 48: 589-60, 1988 which is hereby incorporated by reference in its entirety). The LDH assay is based upon LDH (a cytoplasmic enzyme that is released into the […] upon cell lysis) oxidizing lactate to pyruvate, pyruvate reacting with a tetrazolium salt INT to form formazan, and the water-soluble formazan dye being detected spectrophotometrically. Thus, the LDH assay is a measure of membrane integrity. […]
# (§2) Briefly, for assays employing porcine kidney epithelial cells, such cells were plated at […] in a 96 well plate. […] Cytotoxicity was then determined by MTT and LDH assays.
# [5] = MTT and LDH cytotoxicity assays, kidney cells; format: cell-based, porcine; settings: pig, LLC-PK1 porcine proximal tubule epithelial cells, treated 6, 24 or 48 hours, 1.0 to 0.004 mg/mL, read-out: LC50 (the source's name)
# Protocol: as §1, §2
molecule,measurement,setting,value
N.N.[Cl][Pt][Cl] [cisplatin],myelosuppressive effect,"[1]; positive control, 50 μM",myelosuppression caused by cisplatin treatment
Triton X-100,hemolysis by positive control,[2],90±5%
same,hemolysis of the red blood cells,[2],greater than 80%
CC(=O)Oc1ccccc1C(=O)O [aspirin],effect on collagen-induced platelet aggregation,"[3]; 167 μg/mL, collagen 25 μg/mL, FIG. 5",significant reduction in collagen-induced platelet aggregation
same,dose dependence of inhibition of collagen-induced platelet aggregation,"[3]; 167, 33.4 and 16.7 μg/mL, collagen 25 μg/mL, FIG. 5",dose dependent
collagen,platelet aggregation induced,"[3]; collagen 20 μg/mL, FIG. 4",greater than 60%
same,platelet aggregation induced,"[3]; collagen 25 μg/mL, FIG. 5",greater than 80%
"O=C(O)C1(C(=O)O)C2c3ccc4c5c3-c3c6c7c8c9c3C53C(C(=O)O)(C(=O)O)C35C(=C4)Cc3cc4c(c-9c35)C83C(CC4)(CC7CC621)C3(C(=O)O)C(=O)O (stereo not shown) [C3, C60(>C(COOH)2)3]",dimension,Nanoparticle dimension,1.57 nm
same,percent of hemolysis,"[2]; human, 3 h",less than 2%
same,protection of bone marrow cells from myelosuppression caused by cisplatin,[1]; with cisplatin (50 μM),none of the tested substituted fullerenes were able to protect the bone marrow cells
same,toxicity to kidney cells,[4],minimally toxic
same,CC50,[5],207 mg/L
same,collagen-induced platelet aggregation in presence of compound,"[3]; compound 200 μg/mL, collagen 20 μg/mL (collagen alone greater than 60%), FIG. 4",approximately 15%
